According to patent US20040092583A1, “Treatment for inhibiting neoplastic lesions” (priority 2001, published 2004):
In brackets after ≈: the same amount, converted by molar mass.

Key:
Type in all cases: cell-based
[1] = tested on: Enterococcus feacalis NCTC 775; assay: MIC, macrodilution broth procedure; details: NCTC775
Protocol: (§1) These studies were performed to determine the minimum inhibitory concentration (MIC) of incensole/furanogermacren mixture.
(§2) MIC values were determined using a macrodiluton broth procedure based on NCCLS Documents M7-A3 “Methods for dilution anti-microbial susceptibility tests for bacteria that grow aerobically-third edition, approved standard (1993).

[2] = tested on: Staphylococcus aureus NCTC 6571; assay: MIC, macrodilution broth procedure; details: NCTC6571
Protocol: as §1, §2

[3] = tested on: PC3 Human Prostate Carcinoma; assay: clonogenic assay (two-layered soft agar), PC3; details: continuous exposure 5-6 days, read-out: IC50 (inhibition of colony formation by 50%)
Protocol: (§3) In vitro cytotoxic activity of extracts containing high concentrations of incensole, furanogermacren and incensole/furanogermacren mixture were determined in several cultured tumour cell lines by performing the […] clonogenic assay. This assay assesses the inhibition of colony formation of tumour stem cells growing in soft agar by cytotoxic agents. Since tumour stem cells are responsible for the proliferate potential and aggressiveness of a tumour cell population, the clonogenic assay is highly predictive of in vivo response.
(§4) The extracts were dissolved in DMSO/water 1:1, prepared as a 30 mg/ml solution and stored at −20° C. until use. […]
(§5) Human tumour cell lines were grown in RPMI 1640 supplemented with 10% fetal calf serum and 2 mM L-glutamine. […] For treatment experiments, exponentially growing cells were trypsinized, washed twice with PBS and the percentage of viable cells was determined by hemocytometer count using trypan blue viable dye exclusion.
(§6) The clonogenic assay was performed according to a modified two-layered soft agar assay. […] Cultures were incubated at 5% CO2 and 37° C. in a humidifled atmosphere for 5-6 days under continuous exposure to drugs and monitored closely for colony growth using an inverted microscope. […]
(§7) If an ID50 or IC70 value could not be determined within the examined dose range, the lowest or highest concentration studies was used for the calculation. […]

[4] = tested on: HT29 colon carcinoma; assay: clonogenic assay (two-layered soft agar), HT29; details: Homo sapiens, HT-29, continuous exposure 5-6 days, read-out: IC50 (inhibition of colony formation by 50%)
Protocol: as §3, §4, §5, §6, §7

[5] = tested on: Staphylococcus aureus NCTC 10442; assay: MIC, macrodilution broth procedure; details: NCTC10442
Protocol: These studies were performed to determine the minimum inhibitory concentration (MIC) of incensole/furanogermacren mixture. MIC values were determined using a macrodiluton broth procedure based on NCCLS Documents M7-A3 “Methods for dilution anti-microbial susceptibility tests for bacteria that grow aerobically-third edition, approved standard (1993). […] The following organisms were tested: [table]

Compound: C/C1=C\C[C@]2(C(C)C)CC[C@@](C)(O2)[C@@H](O)CC/C(C)=C/CC1 [Incensole, incensole]
- MIC [1]: 38 µg/mL (≈ 124 µM)
- MIC [2]: 38 µg/mL (≈ 124 µM)
- IC50 [3]: 6 µg/mL (≈ 19.6 µM)
- IC50 [4]: 70 µg/mL (≈ 228 µM)
- MIC [5]: 38 µg/mL (≈ 124 µM)
